Data published in patent EP0806480A2, “Frenolicin gene cluster” (F. HOFFMANN-LA ROCHE AG, priority 1996, dated 1997).

test system: Streptomyces and other bacteria; assay: Toxicity of frenolicins to bacteria (comparative statement, no method described); type: cell-based; conditions: relative ranking among the frenolicins; qualitative only

Compound	toxic to Streptomyces and other bacteria
frenolicin epoxide	even less so
frenolicin B [reference compound]	most toxic
CCC[C@H]1O[C@H](CC(=O)O)CC2=C1C(=O)c1c(O)cccc1C2=O [deoxyfrenolicin]	less toxic
